Laboratory results as given in ChEMBL document CHEMBL3739395, “Discovery and optimisation of 1-acyl-2-benzylpyrrolidines as potent dual orexin receptor antagonists” (Medchemcomm, 2015).
Values after ≈ are worked out from the molar mass of the structure shown. Active and inactive are the calls of the source. The rule behind the calls is not given here.

How the values were obtained:
[1] = biological target: T1, Orexin receptor type 2 (Homo sapiens, UniProt O43614); test: Inhibition of human orexin-2 receptor expressed in CHO cells assessed as calcium release preincubated for 120 mins followed by addition of orexin-A by fluo-4 AM based-FLIPR analysis; assay type: functional, cell-based
T1 sequence (O43614 whole entry): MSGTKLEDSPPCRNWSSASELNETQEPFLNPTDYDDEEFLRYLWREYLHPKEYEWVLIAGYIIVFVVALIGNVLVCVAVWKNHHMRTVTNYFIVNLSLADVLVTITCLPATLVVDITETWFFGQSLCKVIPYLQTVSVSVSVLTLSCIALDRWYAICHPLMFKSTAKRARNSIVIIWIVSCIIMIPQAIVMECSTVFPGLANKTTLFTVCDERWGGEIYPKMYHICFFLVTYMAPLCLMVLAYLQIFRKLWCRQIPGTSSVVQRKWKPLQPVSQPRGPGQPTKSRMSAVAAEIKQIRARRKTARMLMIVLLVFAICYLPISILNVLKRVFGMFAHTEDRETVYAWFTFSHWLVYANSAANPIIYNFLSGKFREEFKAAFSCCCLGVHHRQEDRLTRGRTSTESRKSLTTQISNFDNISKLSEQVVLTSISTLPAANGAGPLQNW

[2] = Intrinsic clearance in human liver microsomes at 1 uM; assay type: ADME; conditions: read-out: CLH
[3] = biological target: T2, Orexin/Hypocretin receptor type 1 (Homo sapiens, UniProt O43613); test: Inhibition of human orexin-1 receptor expressed in CHO cells assessed as calcium release preincubated for 120 mins followed by addition of orexin-A by fluo-4 AM based-FLIPR analysis; assay type: functional, cell-based
T2 sequence (O43613 whole entry): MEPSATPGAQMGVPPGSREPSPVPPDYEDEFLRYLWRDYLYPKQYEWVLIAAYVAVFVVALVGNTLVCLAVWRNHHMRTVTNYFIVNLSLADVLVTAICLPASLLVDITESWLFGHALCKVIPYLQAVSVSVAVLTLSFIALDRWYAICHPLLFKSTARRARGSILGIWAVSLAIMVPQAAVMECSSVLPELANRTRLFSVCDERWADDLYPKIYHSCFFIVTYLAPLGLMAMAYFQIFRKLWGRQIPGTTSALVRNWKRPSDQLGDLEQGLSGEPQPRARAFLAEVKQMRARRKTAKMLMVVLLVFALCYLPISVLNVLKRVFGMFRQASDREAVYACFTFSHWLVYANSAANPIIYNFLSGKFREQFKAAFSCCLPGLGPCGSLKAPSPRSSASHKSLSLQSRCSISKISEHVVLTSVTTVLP

[4] = Ratio of drug level in brain to plasma in Wistar rat at 100 mg/kg, po measured 3 hrs post dose; assay type: ADME, organism-based; conditions: brain and plasma, read-out: BPR
[5] = Drug uptake in Wistar rat brain at 100 mg/kg, po measured 3 hrs post dose; assay type: ADME, organism-based; conditions: read-out: Drug uptake
[6] = Intrinsic clearance in rat liver microsomes at 1 uM; assay type: ADME; conditions: read-out: CLH
[7] = Plasma concentration in Wistar rat at 100 mg/kg, po measured 3 hrs post dose; assay type: ADME, organism-based
[8] = Drug uptake in Wistar rat cerebrospinal fluid at 100 mg/kg, po measured 3 hrs post dose; assay type: ADME, organism-based; conditions: read-out: Drug uptake
[9] = biological target: Cytochrome P450 3A4 (Homo sapiens, UniProt P08684); test: Inhibition of CYP3A4 (unknown origin) assessed as testosterone-6beta hydroxylation; assay type: ADME
Sequence of Cytochrome P450 3A4 (P08684 whole entry): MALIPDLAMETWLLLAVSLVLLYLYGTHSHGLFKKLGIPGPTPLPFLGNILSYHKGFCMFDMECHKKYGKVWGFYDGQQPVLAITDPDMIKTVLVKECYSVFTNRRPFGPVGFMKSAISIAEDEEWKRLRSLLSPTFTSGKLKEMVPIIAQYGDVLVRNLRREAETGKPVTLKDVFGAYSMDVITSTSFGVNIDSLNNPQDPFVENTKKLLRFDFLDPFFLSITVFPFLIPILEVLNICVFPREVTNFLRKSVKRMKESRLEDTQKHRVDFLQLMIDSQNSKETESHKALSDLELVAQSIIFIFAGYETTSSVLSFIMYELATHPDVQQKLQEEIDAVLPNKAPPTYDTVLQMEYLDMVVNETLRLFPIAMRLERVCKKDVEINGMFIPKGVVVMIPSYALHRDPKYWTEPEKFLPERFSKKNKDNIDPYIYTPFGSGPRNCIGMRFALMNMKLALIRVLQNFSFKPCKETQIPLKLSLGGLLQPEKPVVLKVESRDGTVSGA

[10] = Solubility of compound in unbuffered water at pH 4.1; assay type: physicochemical
[11] = tested on: Rattus norvegicus; test: Sleep promoting effect in Wistar rat sleep model at 100 mg/kg, po administered as single dose during first 6 hrs of night active period post dose relative to vehicle control; assay type: functional, organism-based
[12] = tested on: Rattus norvegicus; test: Reduction in home cage activity in Wistar rat sleep model at 100 mg/kg, po administered as single dose during first 6 hrs of night active period post dose relative to vehicle control; assay type: functional; parameters: scale not given: the % may be the effect or the level left
[13] = tested on: Rattus norvegicus; test: Increase in time spent in quiet wake state in Wistar rat sleep model at 100 mg/kg, po administered as single dose during first 6 hrs of night active period post dose relative to vehicle control; assay type: functional
[14] = tested on: Rattus norvegicus; test: Increase in time spent in rapid eye movement sleep in Wistar rat sleep model at 100 mg/kg, po administered as single dose during first 6 hrs of night active period post dose relative to vehicle control; assay type: functional
[15] = tested on: Rattus norvegicus; test: Increase in time spent in non-rapid eye movement sleep in Wistar rat sleep model at 100 mg/kg, po administered as single dose during first 6 hrs of night active period post dose relative to vehicle control; assay type: functional
[16] = tested on: Rattus norvegicus; test: Reduction in time spent in active wake state in Wistar rat sleep model at 100 mg/kg, po administered as single dose during first 6 hrs of night active period post dose relative to vehicle control; assay type: functional; parameters: scale not given: the % may be the effect or the level left
[17] = Lipophilicity, log D of the compound; assay type: physicochemical; conditions: octanol/water
[18] = Clearance in rat; assay type: ADME, organism-based; conditions: in vivo
[19] = Oral bioavailability in rat; assay type: ADME, organism-based; conditions: in vivo

Row | Structure (SMILES) | IC50 [1] [nM] | microsomal CLint at 1 µM [2] [µL/min/mg] | IC50 [3] [nM] | other results
1 | COc1cccc(-c2sc(C)nc2C(=O)N2CCC[C@H]2Cc2ccc(OC)c(OC)c2)c1 | 7.8 | 300 | 11 | 
2 | COc1ccc(C[C@@H]2CCCN2C(=O)c2nc(C)sc2-c2cccc(C)c2)cc1OC | 3.1 | 338 | 3.5 | Kp at 3 h [4]: 0.97; concentration at 3 h [5]: 125 ng/mL; microsomal CLint at 1 µM [6]: > 1250 µL/min/mg; concentration at 3 h [7]: 129 ng/mL; concentration at 3 h [8]: 6 ng/mL
3 | Cc1cccc(-c2sc(C)nc2C(=O)N2CCC[C@H]2Cc2ccc3c(c2)OCO3)c1 | 40 | 124 | 64 | 
4 | Cc1cccc(-c2sc(C)nc2C(=O)N2CCC[C@H]2Cc2ccc(Cl)c(Cl)c2)c1 | 66 | > 1250 | 22 | 
5 | COc1ccc(CC2c3sccc3CCN2C(=O)c2cc(C)ccc2-n2nccn2)cc1OC (racemic) | 428 |  | 131 | 
6 | COc1ccc(CC2CCCCN2C(=O)c2cc(C)ccc2-n2nccn2)cc1OC (racemic) | 3.3 | 616 | 2.7 | 
7 | COc1ccc(C[C@@H]2CCCN2C(=O)c2cc(C)ccc2-n2cccn2)cc1OC | 65 | > 1250 | 45 | 
8 | COc1ccc(-c2sc(C)nc2C(=O)N2CCC[C@H]2Cc2ccc(OC)c(OC)c2)cc1 | 10 | 210 | 17 | 
9 | COc1ccc(C[C@@H]2CCCN2C(=O)c2nc(C)sc2-c2cccc(Cl)c2)cc1OC | 6.3 | 612 | 9.1 | 
10 | COc1ccc(C[C@@H]2CCCN2C(=O)c2ccccc2-c2nc(C)no2)cc1OC | 12 | 129 | 33 | 
11 | COc1ccc(C[C@@H]2CCCN2C(=O)c2nc(C)sc2-c2ccc(F)cc2)cc1OC | 62 | 216 | 111 | 
12 | COc1ccc(C[C@@H]2CCCN2C(=O)c2nc(C)ccc2-c2ncccn2)cc1OC | 71 | 17 | 60 | 
13 | COc1ccc(C[C@@H]2CCCN2C(=O)c2ccccc2-c2ncccn2)cc1OC | 4.7 | 102 | 16 | Kp at 3 h [4]: 0.18; concentration at 3 h [5]: 134 ng/mL; concentration at 3 h [7]: 737 ng/mL; concentration at 3 h [8]: 113 ng/mL
14 | CCn1cc(C(=O)N2CCc3ccsc3C2Cc2ccc(OC)c(OC)c2)c2ccccc21 (racemic) | 1.4 | > 1250 | 5.4 | IC50 [9]: 3000 nM; solubility [10]: 7 µg/mL (≈ 15.2 µM); microsomal CLint at 1 µM [6]: > 1250 µL/min/mg
15 | COc1cccc(C[C@@H]2CCCN2C(=O)c2nc(C)sc2-c2cccc(C)c2)c1Cl | 16 | > 1250 | 26 | microsomal CLint at 1 µM [6]: > 1250 µL/min/mg
16 | Cc1ccc(-n2nccn2)c(C(=O)N2CCN(c3nc4cc(Cl)ccc4o3)CC[C@H]2C)c1 [SUVOREXANT] |  |  |  | Activity [11]: Active; Activity [12]: -31%; Activity [13]: 9%; Activity [14]: 20%; Activity [15]: 19%; Activity [16]: -16%
17 | COc1ccc(Cl)c(C[C@@H]2CCCN2C(=O)c2nc(C)sc2-c2cccc(C)c2)c1 | 18 | 996 | 33 | microsomal CLint at 1 µM [6]: > 1250 µL/min/mg
18 | COc1cc(C[C@@H]2CCCN2C(=O)c2nc(C)sc2-c2cccc(C)c2)cc(OC)c1 | 4.3 | 798 | 3.4 | 
19 | COc1ccc(C[C@@H]2CCCN2C(=O)c2nc(C)sc2-c2cccc(C)c2)cc1Cl | 1.8 | > 1250 | 3.8 | microsomal CLint at 1 µM [6]: > 1250 µL/min/mg
20 | COc1ccc(C[C@@H]2CCCN2C(=O)c2cc(C)ccc2-n2nccn2)cc1OC | 8.4 | 356 | 8.5 | logD [17]: 3; solubility [10]: 160 µg/mL (≈ 394 µM); microsomal CLint at 1 µM [6]: > 1250 µL/min/mg; clearance [18]: 55 mL/min/kg; bioavailability [19]: < 10%
21 | CNC(=O)[C@@H](c1ccccc1)N1CCc2cc(OC)c(OC)cc2[C@@H]1CCc1ccc(C(F)(F)F)cc1 [ALMOREXANT] |  |  |  | Activity [11]: Active; Activity [12]: -42%; Activity [13]: -8%; Activity [14]: 50%; Activity [15]: 22%; Activity [16]: -20%
22 | CCn1cc(C(=O)N2CCCCC2Cc2ccc(OC)c(OC)c2)c2ccccc21 (racemic) | 102 |  | 28 | 
23 | COc1ccc(C[C@@H]2CCCN2C(=O)c2nc(C)sc2-c2ccc3c(c2)CCO3)cc1OC | 8 | 235 | 8.3 | 
24 | Cc1cccc(-c2sc(C)nc2C(=O)N2CCC[C@H]2Cc2ccc(C)c(Cl)c2)c1 | 10 | > 1250 | 13 | microsomal CLint at 1 µM [6]: > 1250 µL/min/mg
25 | COc1cccc(CCC2CCCCN2C(=O)c2cc(C)ccc2-n2nccn2)c1 (racemic) | 243 | 1170 | 108 | 
26 | COc1ccc(C[C@@H]2CCCN2C(=O)c2nccnc2-c2cccc(C)c2)cc1OC | 4 | 158 | 23 | Kp at 3 h [4]: 0.4; concentration at 3 h [5]: 89 ng/mL; concentration at 3 h [7]: 225 ng/mL; concentration at 3 h [8]: 22 ng/mL
27 | COc1ccc(CCC2CCCCN2C(=O)c2cc(C)ccc2-n2nccn2)cc1OC (racemic) | 16 | 817 | 28 | 
28 | Cc1cccc(-c2sc(C)nc2C(=O)N2CCC[C@H]2Cc2ccc3c(c2)OCCO3)c1 | 39 | 1040 | 35 | 
29 | COc1ccc(C[C@@H]2CCCN2C(=O)c2ccccc2-n2nccn2)cc1OC | 3.5 | 104 | 16 | Kp at 3 h [4]: 0.39; concentration at 3 h [5]: 45 ng/mL; microsomal CLint at 1 µM [6]: > 1250 µL/min/mg; concentration at 3 h [7]: 114 ng/mL; concentration at 3 h [8]: 12 ng/mL
